Results on 2 compounds are retold here after ChEMBL document CHEMBL4020836, “Discovery of 7-Oxo-2,4,5,7-tetrahydro-6 H-pyrazolo[3,4- c]pyridine Derivatives as Potent, Orally Available, and Brain-Penetrating Receptor Interacting Protein 1 (RIP1) Kinase Inhibitors: Analysis of Structure-Kinetic Relationships” (J Med Chem, 2018).

Where only a bound is given, the exact number is not on record here.

Series [1] in a line: Metabolic stability in human liver microsomes. In kind it is ADME, microsome. The note with it: read-out: Stability. On the technique in general: Liver microsomes are a subcellular fraction often used to study metabolism.
A short description of series [2]: Metabolic stability in mouse liver microsomes. Format: ADME, microsome. Particulars: read-out: Stability.

Turning to `CNC(=O)c1ccc2c(c1)OC[C@H](N1CCc3c(nn(Cc4ccccc4)c3Cl)C1=O)C(=O)N2C`, the microsomal CLint in series [1] was 13 µL/min/mg; in series [2] it was < 1 µL/min/mg.
Consider `CN1C(=O)[C@@H](N2CCc3c(nn(Cc4ccccc4)c3Cl)C2=O)COc2ccccc21`, for which the results for the microsomal CLint in series [1] and in series [2] were 101 µL/min/mg and 100 µL/min/mg, respectively.
